Values quoted from earlier work in patent publication US20040115708A1, “Method of screening agents for the treatment and prevention of cancer and cachexia and the new use of specific agents for the treatment and prevention of cancer and cachexia” (priority 2002, published 2004).

Key:
[1] = test system: 8-Hydroxy-deoxyguanosine (8-OH-dG) in lung DNA
[2] = test system: cancer in NNK treated animals; details: consumption of EGCG

Row | Compound | 8-OH-dG (hydroxyl radical-caused DNA adduct) level ([1]; mice treated with NNK) | incidence of cancer [2] | levels of 8-OH-dG in lung DNA ([1]; consumption of EGCG, NNK treated animals)
1 | CN(CCCC(=O)c1cccnc1)N=O [NNK, 4-(methyInitrosamino)-1-(3-pyridyl)-1-butanone] | elevated |  | 
2 | (−)-epigallocatechin gallate |  | decreases | significantly lowers
